Experimental data reported in the supplement of paper PMC10307832.

Legend:
Experiment in all cases: relative viability (nuclei count vs DMSO), 5 days (fraction); higher = more cells survive
201T = tested on: 201T
Summary of the method: (§1)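 Relative viability was taken as the ratio of nuclei in treated wells to nuclei in vehicle wells. Lung cancer cell lines in 1536-well plates received compounds by pin tool one day after seeding, either one drug alone or a fixed anchor-drug dose plus five library-drug doses (not always all listed) in √10 steps. Nuclei were counted on 4× images after 5 days of treatment, and values are medians of duplicate plates.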

ABC-1 = tested on: ABC-1
Summary of the method: as §1

CAL-12T = tested on: CAL-12T
Summary of the method: as §1

COR-L23 = tested on: COR-L23
Summary of the method: as §1

HOP-62 = tested on: HOP-62
Summary of the method: as §1

LC-2-ad = tested on: LC-2-ad
Summary of the method: as §1

LCLC-103H = tested on: LCLC-103H
Summary of the method: as §1

NCI-H1355 = tested on: NCI-H1355
Summary of the method: as §1

NCI-H1395 = tested on: NCI-H1395
Summary of the method: as §1

NCI-H1651 = tested on: NCI-H1651
Summary of the method: as §1

NCI-H1666 = tested on: NCI-H1666
Summary of the method: as §1

NCI-H1993 = tested on: NCI-H1993
Summary of the method: as §1

NCI-H2085 = tested on: NCI-H2085
Summary of the method: as §1

NCI-H2170 = tested on: NCI-H2170
Summary of the method: as §1

NCI-H2228 = tested on: NCI-H2228
Summary of the method: as §1

NCI-H2347 = tested on: NCI-H2347
Summary of the method: as §1

NCI-H23 = tested on: NCI-H23
Summary of the method: as §1

NCI-H322M = tested on: NCI-H322M
Summary of the method: as §1

NCI-H520 = tested on: NCI-H520
Summary of the method: as §1

NCI-H647 = tested on: NCI-H647
Summary of the method: as §1

NCI-H661 = tested on: NCI-H661
Summary of the method: as §1

NCI-H838 = tested on: NCI-H838
Summary of the method: as §1

O=c1[nH]c2ccccc2n1C1CCN(CCCC(c2ccc(F)cc2)c2ccc(F)cc2)CC1 [Pimozide] + Cc1nc(Nc2ncc(C(=O)Nc3c(C)cccc3Cl)s2)cc(N2CCN(CCO)CC2)n1 [Dasatinib] (partner 0.075 µM)
relative viability (201T; first compound 0.08 µM): 0.573
relative viability (201T; first compound 0.253 µM): 0.527
relative viability (201T; first compound 0.8 µM): 0.564
relative viability (201T; first compound 2.53 µM): 0.516
relative viability (201T; first compound 8 µM): 0.52
relative viability (ABC-1; first compound 0.08 µM): 0.521
relative viability (ABC-1; first compound 0.253 µM): 0.48
relative viability (ABC-1; first compound 0.8 µM): 0.518
relative viability (ABC-1; first compound 2.53 µM): 0.388
relative viability (ABC-1; first compound 8 µM): 0.396
relative viability (CAL-12T; first compound 0.08 µM): 0.378
relative viability (CAL-12T; first compound 0.253 µM): 0.404
relative viability (CAL-12T; first compound 0.8 µM): 0.415
relative viability (CAL-12T; first compound 2.53 µM): 0.333
relative viability (CAL-12T; first compound 8 µM): 0.259
relative viability (COR-L23; first compound 0.08 µM): 0.58
relative viability (COR-L23; first compound 0.253 µM): 0.468
relative viability (COR-L23; first compound 0.8 µM): 0.53
relative viability (COR-L23; first compound 2.53 µM): 0.49
relative viability (COR-L23; first compound 8 µM): 0.455
relative viability (HOP-62; first compound 0.08 µM): 0.698
relative viability (HOP-62; first compound 0.253 µM): 0.617
relative viability (HOP-62; first compound 2.53 µM): 0.685
relative viability (HOP-62; first compound 8 µM): 0.651
relative viability (LC-2-ad; first compound 0.08 µM): 0.571
relative viability (LC-2-ad; first compound 0.253 µM): 0.518
relative viability (LC-2-ad; first compound 0.8 µM): 0.447
relative viability (LC-2-ad; first compound 2.53 µM): 0.548
relative viability (LC-2-ad; first compound 8 µM): 0.493
relative viability (LCLC-103H; first compound 0.08 µM): 0.531
relative viability (LCLC-103H; first compound 0.253 µM): 0.373
relative viability (LCLC-103H; first compound 0.8 µM): 0.371
relative viability (LCLC-103H; first compound 2.53 µM): 0.518
relative viability (LCLC-103H; first compound 8 µM): 0.549
relative viability (NCI-H1355; first compound 0.08 µM): 0.744
relative viability (NCI-H1355; first compound 0.253 µM): 0.722
relative viability (NCI-H1355; first compound 0.8 µM): 0.671
relative viability (NCI-H1355; first compound 2.53 µM): 0.672
relative viability (NCI-H1355; first compound 8 µM): 0.732
relative viability (NCI-H1395; first compound 0.08 µM): 0.388
relative viability (NCI-H1395; first compound 0.253 µM): 0.382
relative viability (NCI-H1395; first compound 0.8 µM): 0.355
relative viability (NCI-H1395; first compound 2.53 µM): 0.403
relative viability (NCI-H1395; first compound 8 µM): 0.361
relative viability (NCI-H1651; first compound 0.08 µM): 0.436
relative viability (NCI-H1651; first compound 0.253 µM): 0.455
relative viability (NCI-H1651; first compound 0.8 µM): 0.388
relative viability (NCI-H1651; first compound 2.53 µM): 0.399
relative viability (NCI-H1651; first compound 8 µM): 0.391
relative viability (NCI-H1666; first compound 0.08 µM): 0.752
relative viability (NCI-H1666; first compound 0.253 µM): 0.814
relative viability (NCI-H1666; first compound 0.8 µM): 0.82
relative viability (NCI-H1666; first compound 2.53 µM): 0.708
relative viability (NCI-H1666; first compound 8 µM): 0.684
relative viability (NCI-H1993; first compound 0.08 µM): 0.649
relative viability (NCI-H1993; first compound 0.253 µM): 0.597
relative viability (NCI-H1993; first compound 0.8 µM): 0.464
relative viability (NCI-H1993; first compound 2.53 µM): 0.664
relative viability (NCI-H1993; first compound 8 µM): 0.332
relative viability (NCI-H2085; first compound 0.08 µM): 0.209
relative viability (NCI-H2085; first compound 0.253 µM): 0.249
relative viability (NCI-H2085; first compound 0.8 µM): 0.221
relative viability (NCI-H2085; first compound 2.53 µM): 0.232
relative viability (NCI-H2085; first compound 8 µM): 0.257
relative viability (NCI-H2170; first compound 0.08 µM): 0.432
relative viability (NCI-H2170; first compound 0.253 µM): 0.475
relative viability (NCI-H2170; first compound 0.8 µM): 0.627
relative viability (NCI-H2170; first compound 2.53 µM): 0.555
relative viability (NCI-H2170; first compound 8 µM): 0.599
relative viability (NCI-H2228; first compound 0.08 µM): 0.524
relative viability (NCI-H2228; first compound 0.253 µM): 0.604
relative viability (NCI-H2228; first compound 0.8 µM): 0.448
relative viability (NCI-H2228; first compound 2.53 µM): 0.345
relative viability (NCI-H2228; first compound 8 µM): 0.315
relative viability (NCI-H2347; first compound 0.253 µM): 0.34
relative viability (NCI-H2347; first compound 0.8 µM): 0.295
relative viability (NCI-H2347; first compound 2.53 µM): 0.349
relative viability (NCI-H2347; first compound 8 µM): 0.343
relative viability (NCI-H23; first compound 0.08 µM): 0.887
relative viability (NCI-H23; first compound 0.253 µM): 0.84
relative viability (NCI-H23; first compound 0.8 µM): 0.71
relative viability (NCI-H23; first compound 2.53 µM): 0.679
relative viability (NCI-H23; first compound 8 µM): 0.802
relative viability (NCI-H322M; first compound 0.253 µM): 0.234
relative viability (NCI-H322M; first compound 0.8 µM): 0.247
relative viability (NCI-H322M; first compound 2.53 µM): 0.257
relative viability (NCI-H322M; first compound 8 µM): 0.231
relative viability (NCI-H520; first compound 0.08 µM): 0.216
relative viability (NCI-H520; first compound 0.253 µM): 0.184
relative viability (NCI-H520; first compound 0.8 µM): 0.185
relative viability (NCI-H520; first compound 2.53 µM): 0.176
relative viability (NCI-H520; first compound 8 µM): 0.225
relative viability (NCI-H647; first compound 0.08 µM): 0.41
relative viability (NCI-H647; first compound 0.253 µM): 0.233
relative viability (NCI-H647; first compound 0.8 µM): 0.198
relative viability (NCI-H647; first compound 2.53 µM): 0.179
relative viability (NCI-H647; first compound 8 µM): 0.162
relative viability (NCI-H661; first compound 0.08 µM): 0.782
relative viability (NCI-H661; first compound 0.253 µM): 0.828
relative viability (NCI-H661; first compound 0.8 µM): 0.826
relative viability (NCI-H661; first compound 2.53 µM): 0.725
relative viability (NCI-H661; first compound 8 µM): 0.611
relative viability (NCI-H838; first compound 0.08 µM): 0.266
relative viability (NCI-H838; first compound 0.253 µM): 0.282
relative viability (NCI-H838; first compound 0.8 µM): 0.225
relative viability (NCI-H838; first compound 2.53 µM): 0.302
relative viability (NCI-H838; first compound 8 µM): 0.279
